Results reported in publication PMC12056667 (Chemical Science, 2025).
“And” between values parts separate entries of the source, which are not always exact repeats. Identical values can stand only once. Like-named read-outs stand apart in the source and are kept apart here.

Assays:
Tet(X4) = Tet(X4) (Escherichia coli, UniProt A0A3T0V9Y5); test: FP competitive displacement of probe 6; assay type: binding; conditions: IC50app, 25 nM 6, 40 nM Tet(X4), 5 mM MgCl2, 1 μM FAD, 100 mM Tris pH 7.0, 0.01% Triton X-100
Procedure: A 2× solution containing 80 nM Tet(X4), 2 μM FAD and 10 mM MgCl2 in the assay buffer was dispensed into the first 22 columns of a 384-well black, non-binding microtiter plate (Greiner Bio-One), 12.5 μL per well, using a microplate reagent dispenser. A solution of 2 μM FAD and 10 mM MgCl2 in the assay buffer was dispensed into the remaining columns to serve as a no enzyme control. A 3-fold, 10-point dilution series of substrates and inhibitors was made in DMSO in a V-bottom 96-well plate (Greiner Bio-One) with a highest concentration of 5 mM or 0.5 mM. Into one column was added DMSO with no inhibitor or substrate, to serve as a positive control. Tigecycline was included as a reference on every plate to ensure reproducibility. 0.5 μL of each dilution was transferred in quadruplicate to the 384-well plate containing enzyme solution using a CyBi-Well liquid-handling robot (CyBio). A solution of 50 nM 6 in the assay buffer was then dispensed, with 12.5 μL per well. The plate was briefly centrifuged (1000 rpm), then incubated at ambient temperature for 30 min prior to measuring the FP. Data points were normalised between the positive and negative controls. Normalised % response was plotted as a function of log10([Inhibitor]), and the IC50^app was determined by fitting the data to the equation: Y = Bottom + (top-bottom)/(1 + 10^Log(IC50) − X) × HillSlope in GraphPad Prism 9.4.1, where Y = % response and X = log10([Inhibitor]). Wells with unusual fluorescence intensities were manually identified and removed from the analysis. […]

[1] = system: E. coli TOP10 containing plasmid pBAD-TOPO-Tet(X4); test: Broth microdilution MIC and checkerboard assay; assay type: cell-based, Escherichia coli; conditions: for Antibiotic MIC / Tet(X) inhibitor MIC: alone; for MIC: Escherichia coli; for Combination (antibiotic/inhibitor) MIC: inhibitor: inhibitor in combination with tigecycline; for Combination (antibiotic/inhibitor) MIC: inhibitor / Combination (antibiotic/inhibitor) MIC: antibiotic: lowest FICI; for Combination (antibiotic/inhibitor) MIC: antibiotic: tigecycline in combination with the inhibitor; for FICI / Outcome: with tigecycline
Excerpt: Tet(X4) was sub-cloned from the Tet(X4) pET28b-(+) expression vector via TOPO cloning. The insert was amplified using the taq polymerase with the forward primer 5′- […]-3′ and the reverse primer 5′- […]-3’. Following PCR purification (Thermo Fisher Scientific), the A-tailed PCR product was ligated into the pBAD-TOPO vector using a TOPO cloning kit (Invitrogen) according to the manufacturer's protocol. Following amplification in E. coli NEB5α cells (NEBiolabs), the fidelity of the insert was confirmed by Sanger sequencing (Eurofins). For microbiological experiments, E. coli TOP10 cells were used as the recipient strain. Cells were plated on Mueller-Hinton agar (MHA) plates containing ampicillin at 100 μg mL^−1. The introduction of pBAD-TOPO-Tet(X4) was confirmed by colony PCR. Strains were stored in a freezer at −80 °C in cryopreservation beads.
(§1) MIC tests and checkerboard assays were performed in U-bottom, 96-well microtiter plates using a modified broth microdilution protocol following CLSI guidelines. Cation-adjusted Mueller-Hinton Broth (CAMHB) was prepared fresh on the day of testing.[74] […] Bacterial colonies were selected from an overnight culture on MHA plates (supplemented with 0.2%w/vL-arabinose for E. coli TOP10 containing pBAD-TOPO-Tet(X4)) and were suspended in 0.9% saline solution to achieve a 0.5 McFarland standard. A 100 μL aliquot of this suspension was then diluted into 9.9 mL of CAMHB to yield approximately 1.5 × 10^6 cfu mL^−1. 50 μL of the suspension was then added to each well of a microtiter plates. Plates were incubated at 37 °C for 18 h. At least 2 replicates were conducted for each combination. E. coli TOP10 + pBAD-TOPO-Tet(X4) cells were grown in the absence and presence of 0.2%w/vL-arabinose. Analysis of the MIC and checkerboard results were carried out by visual inspection of growth, with and without resazurin dye, an oxidation–reduction indicator.[75] As a measure of synergy, fractional inhibitory concentration index (FICI) was calculated as FICA + FICB, where FICA and FICB are the MICcombination/MICalone for each agent, respectively.[76] Results were interpreted as follows: synergistic (<0.5), indifferent (1.0–4.0) or antagonistic (>4.0).[64] In cases where the MIC exceeded or was below the measured range, the borderline value was taken to calculate the FIC index.

[2] = system: Acinetobacter spp. NT3-1 – tet(X3); test: microbe, parasite or virus in culture; assay type: cell-based; conditions: for Antibiotic MIC: alone
Procedure: (§2) MIC tests and checkerboard assays were performed in U-bottom, 96-well microtiter plates using a modified broth microdilution protocol following CLSI guidelines. Cation-adjusted Mueller-Hinton Broth (CAMHB) was prepared fresh on the day of testing.[74] In brief, assays were set up in a total volume of 100 μL per well and titrations comprised seven 2-fold dilutions of inhibitors and ten 2-fold dilutions of tigecycline in CAMHB. Bacterial colonies were selected from an overnight culture on MHA plates (supplemented with 0.2%w/vL-arabinose for E. coli TOP10 containing pBAD-TOPO-Tet(X4)) and were suspended in 0.9% saline solution to achieve a 0.5 McFarland standard. A 100 μL aliquot of this suspension was then diluted into 9.9 mL of CAMHB to yield approximately 1.5 × 10^6 cfu mL^−1. 50 μL of the suspension was then added to each well of a microtiter plates. Plates were incubated at 37 °C for 18 h. At least 2 replicates were conducted for each combination. E. coli TOP10 + pBAD-TOPO-Tet(X4) cells were grown in the absence and presence of 0.2%w/vL-arabinose. Analysis of the MIC and checkerboard results were carried out by visual inspection of growth, with and without resazurin dye, an oxidation–reduction indicator.[75] As a measure of synergy, fractional inhibitory concentration index (FICI) was calculated as FICA + FICB, where FICA and FICB are the MICcombination/MICalone for each agent, respectively.[76] Results were interpreted as follows: synergistic (<0.5), indifferent (1.0–4.0) or antagonistic (>4.0).[64] In cases where the MIC exceeded or was below the measured range, the borderline value was taken to calculate the FIC index.

[3] = system: Salmonella enterica T-2a – tet(X4); test: microbe, parasite or virus in culture; assay type: cell-based; conditions: for Antibiotic MIC: alone, S. enterica T-2a
Procedure: as §2

[4] = system: Acinetobacter baumannii NT5-1 – tet(X5); test: microbe, parasite or virus in culture; assay type: cell-based; conditions: for Antibiotic MIC: alone, A. baumannii NT5-1
Procedure: as §1

[5] = system: Escherichia coli T-24a – tet(X4); test: microbe, parasite or virus in culture; assay type: cell-based; conditions: for Antibiotic MIC: alone
Procedure: as §1

[6] = system: Proteus penneri NT6-2 – tet(X6); test: microbe, parasite or virus in culture; assay type: cell-based; conditions: for Antibiotic MIC: alone, P. penneri NT6-2
Procedure: as §1

[7] = induced with 0.2%w/v L-arabinose
[8] = inhibitor in combination with tigecycline, lowest FICI
[9] = tigecycline in combination with the inhibitor, lowest FICI

Q: What does the source list for `C[C@H]1c2cccc(O)c2C(=O)C2=C(O)[C@]3(O)C(=O)C(C(N)=O)=C(O)[C@@H](N(C)C)[C@@H]3[C@@H](O)[C@@H]21` [Doxycycline]?
A: IC50 (Tet(X4); FP assay): 1580 ± 150 nM; Antibiotic MIC ([1]; 0.2%w/v L-arabinose (Table S7)): 32 µg/mL; Antibiotic MIC ([1]; without L-arabinose induction): 1 µg/mL; Antibiotic MIC ([2]; Acinetobacter spp. NT3-1): 8 µg/mL; Antibiotic MIC [3]: 32 µg/mL; Antibiotic MIC [4]: 32 µg/mL; Antibiotic MIC ([5]; E. coli T-24a): 32 µg/mL; Antibiotic MIC [6]: 16 µg/mL

Q: Which results are given for `CN1CCN(CCCN2c3ccccc3Sc3ccc(Cl)cc32)CC1` [Prochlorperazine]?
A: MIC ([1]; read-out: Tet(X) Inhibitor MIC, alone, without L-arabinose induction): 64 µg/mL; Tet(X) inhibitor MIC [1, 7]: 64 µg/mL; Tet(X) inhibitor MIC ([1]; induced with 0.2%w/v L-arabinose, listed as prochlorperazine): 16 to 64 µg/mL; reduction of the tigecycline MIC ([1]; at high concentrations of inhibitor, 0.2%w/v L-arabinose): 2–4 fold; Combination (antibiotic/inhibitor) MIC: inhibitor ([1]; 0.2%w/v L-arabinose): 16 µg/mL; Combination (antibiotic/inhibitor) MIC: inhibitor ([1]; without L-arabinose): 32 µg/mL; Combination (antibiotic/inhibitor) MIC: antibiotic ([1]; 0.2%w/v L-arabinose): 2 µg/mL; Combination (antibiotic/inhibitor) MIC: antibiotic ([1]; without L-arabinose): 0.13 µg/mL; FICI ([1]; 0.2%w/v L-arabinose): 0.8; Outcome ([1]; 0.2%w/v L-arabinose): Indifferent (indifferent (0.5–4.0)); FICI ([1]; 0.2%w/v L-arabinose, listed as prochlorperazine): 0.5-1; FICI ([1]; without L-arabinose): 1; Outcome ([1]; without L-arabinose): indifferent (indifferent (0.5-4.0)); MIC ([2]; Acinetobacter, read-out: Tet(X) Inhibitor MIC, alone, Acinetobacter spp. NT3-1): 8 µg/mL; Combination (Antibiotic/Inhibitor) MICs: inhibitor [2, 8]: 8 µg/mL; Combination (Antibiotic/Inhibitor) MICs: antibiotic [2, 9]: 4 µg/mL; FICI ([2]; with tigecycline): 2; Outcome ([2]; with tigecycline): indifferent (indifferent (0.5-4.0)); MIC ([3]; Salmonella enterica, read-out: Tet(X) Inhibitor MIC): > 128 µg/mL; Combination (Antibiotic/Inhibitor) MICs: inhibitor [3, 8]: 64 µg/mL; Combination (Antibiotic/Inhibitor) MICs: antibiotic [3, 9]: 16 µg/mL; FICI ([3]; with tigecycline): 1; Outcome ([3]; with tigecycline): indifferent (indifferent (0.5-4.0)); MIC ([4]; Acinetobacter baumannii, read-out: Tet(X) Inhibitor MIC): 128 µg/mL; Combination (Antibiotic/Inhibitor) MICs: inhibitor [4, 8]: 64 µg/mL; Combination (Antibiotic/Inhibitor) MICs: antibiotic [4, 9]: 1 µg/mL; FICI ([4]; with tigecycline): 0.6; Outcome ([4]; with tigecycline): indifferent (indifferent (0.5-4.0)); MIC ([5]; Escherichia coli, read-out: Tet(X) Inhibitor MIC, alone, E. coli T-24a): 256 µg/mL; Combination (Antibiotic/Inhibitor) MICs: inhibitor [5, 8]: 32 µg/mL; Combination (Antibiotic/Inhibitor) MICs: antibiotic [5, 9]: 8 µg/mL; FICI ([5]; with tigecycline): 0.6; Outcome ([5]; with tigecycline): indifferent (indifferent (0.5-4.0)); MIC ([6]; Proteus penneri, read-out: Tet(X) Inhibitor MIC): > 128 µg/mL; Combination (Antibiotic/Inhibitor) MICs: inhibitor [6, 8]: 128 µg/mL; Combination (Antibiotic/Inhibitor) MICs: antibiotic [6, 9]: 4 µg/mL; FICI ([6]; with tigecycline): 2; Outcome ([6]; with tigecycline): indifferent (indifferent (0.5-4.0))

Q: Which IC50 (Tet(X4); FP assay) does the source give for `CN(C)c1cc(NC(=O)CNC(C)(C)C)c(O)c2c1C[C@H]1C[C@H]3[C@H](N(C)C)C(O)=C(C(N)=O)C(=O)[C@@]3(O)C(O)=C1C2=O` [Tigecycline] here?
A: Its IC50 is 18.6 ± 4.9 nM.

Q: What about the IC50 (Tet(X4); Tet(X4) (Polarization)) of the same compound?
A: Its IC50 is 22 nM and 19 nM.

Q: And the MIC ([1]; read-out: Tigecycline MIC, L-arabinose 0 %w/v)?
A: The MIC was 0.25 µg/mL.

Q: What about the MIC ([1]; read-out: Tigecycline MIC, L-arabinose 0.0002 %w/v) of the same compound?
A: The MIC was 0.25 µg/mL.

Q: And the MIC ([1]; read-out: Tigecycline MIC, L-arabinose 0.002 %w/v)?
A: Its MIC is 0.5 µg/mL.

Q: What about the MIC ([1]; read-out: Tigecycline MIC, L-arabinose 0.02 %w/v) of the same compound?
A: Its MIC is 2 µg/mL.

Q: What about the MIC ([1]; read-out: Tigecycline MIC, L-arabinose 0.2 %w/v) of the same compound?
A: Its MIC is 8 µg/mL.

Q: What about the MIC ([1]; read-out: Tigecycline MIC, L-arabinose 0.4 %w/v) of the same compound?
A: Its MIC is 8 µg/mL.

Q: And the “Antibiotic MIC” value [1, 7]?
A: The value was 4 µg/mL.

Q: What about the “Antibiotic MIC” value ([1]; without L-arabinose induction) of the same compound?
A: The value was 0.25 µg/mL.

Q: And the “Antibiotic MIC” value ([2]; Acinetobacter spp. NT3-1)?
A: The value was 4 µg/mL.

Q: And the “Antibiotic MIC” value [3]?
A: Its value is 32 µg/mL.

Q: And the “Antibiotic MIC” value [4]?
A: The value was 8 µg/mL.

Q: What about the “Antibiotic MIC” value ([5]; E. coli T-24a) of the same compound?
A: Its value is 16 µg/mL.

Q: What about the “Antibiotic MIC” value [6] of the same compound?
A: The value was 8 µg/mL.
